Measured values published in US6627651B1, “Cyclic compounds and uses thereof” (Takeda Chemical Industries, Ltd., priority 1999, dated 2003).

| SMILES | melting point [°C] |
| --- | --- |
| Cc1ccc(-c2ccc3c(c2)C=C(C(=O)Nc2ccc(C4=NCCN4)cc2)CCO3)cc1 [Compound 92, N-[4-(2-imidazolin-2-yl)phenyl]-7-(4-methylphenyl)-2,3-dihydro-1-benzooxepine-4-carboxamide] | 282 to 283 |
| COC(=O)N1CCN=C1Cc1ccc(NC(=O)C2=Cc3cc(-c4ccc(C)cc4)ccc3OCC2)cc1 [Compound 96, N-[4-[(1-methoxycarbonyl-2-imidazolin-2-yl)methyl]phenyl]-7-(4-methylphenyl)-2,3-dihydro-1-benzooxepine-4-carboxamide] | 170 to 171 |
| Cc1ccc(COc2cccc(/C=C/c3ccc(CN4CCCCC4)cc3)c2)cc1 [Compound 97, (E)-1-[4-[3-(4-methylbenzyloxy)styryl]benzyl]piperidine] | 87 to 88 |
| Cc1ccc(COc2cccc(/C=C/c3ccc(C[N+]4(C)CCCCC4)cc3)c2)cc1.[I-] [Compound 98, (E)-1-methyl-1-[4-[3-(4-methylbenzyloxy)styryl]benzyl]piperidinium iodide] | 189 to 192 |
| CCCOCCOc1ccccc1COc1ccc2c(c1)C=C(C(=O)Nc1ccc(CN(C)C3CCOCC3)cc1)CCS2(=O)=O [Compound 99, N-[4-[[N-methyl-N-(tetrahydropyran-4-yl)amino]methyl]phenyl]-7-[[2-(2-propoxyethoxy)benzyl]oxy]-1,1-dioxo-2,3-dihydro-1-benzothiepine-4-carboxamide] | 136 to 138 |
| CN(Cc1ccc(NC(=O)C2=Cc3cc(OCc4ccccc4Cl)ccc3S(=O)(=O)CC2)cc1)C1CCOCC1 [Compound 103, 7-[(2-chlorobenzyl)oxy]-N-[4-[[N-methyl-N-(tetrahydropyran-4-yl)amino]methyl]phenyl]-1,1-dioxo-2,3-dihydro-1-benzothiepine-4-carboxamide] | 205 to 207 |
| CCOCCOc1ccccc1COc1ccc2c(c1)C=C(C(=O)Nc1ccc(CN(C)C3CCOCC3)cc1)CCS2(=O)=O [Compound 104, 7-[[2-(2-ethoxyethoxy)benzyl]oxy]-N-[4-[[N-methyl-N-(tetrahydropyran-4-yl)amino]methyl]phenyl]-1,1-dioxo-2,3-dihydro-1-benzothiepine-4-carboxamide] | 132 to 136 |
| CCCOc1ccccc1CCOc1ccc2c(c1)C=C(C(=O)Nc1ccc(CN(C)C3CCOCC3)cc1)CCS2(=O)=O [Compound 106, N-[4-[[N-methyl-N-(tetrahydropyran-4-yl)amino]methyl]phenyl]-7-[(2-propoxyphenethyl)oxy]-1,1-dioxo-2,3-dihydro-1-benzothiepine-4-carboxamide] | 161 to 162 |
| CCCOCCOc1ccc(COc2ccc3c(c2)C=C(C(=O)Nc2ccc(CN(C)C4CCOCC4)cc2)CCS3(=O)=O)cc1OCC [Compound 110, 7-[[3-ethoxy-4-(2-propoxyethoxy)benzyl]oxy]-N-[4-[[N-methyl-N-(tetrahydropyran-4-yl)amino]methyl]phenyl]-1,1-dioxo-2,3-dihydro-1-benzothiepine-4-carboxamide] | 146 to 147 |
| CCCOc1ccc(Oc2ccc3c(c2)C=C(C(=O)Nc2ccc(CN(C)C4CCOCC4)cc2)CCS3(=O)=O)cc1 [Compound 111, N-[4-[[N-methyl-N-(tetrahydropyran-4-yl)amino]methyl]phenyl]-7-(4-propoxyphenoxy)-1,1-dioxo-2,3-dihydro-1-benzothiepine-4-carboxamide] | 139 to 141 |
| CCCc1ccc(Oc2ccc3c(c2)C=C(C(=O)Nc2ccc(CN(C)C4CCOCC4)cc2)CCS3(=O)=O)cc1 [Compound 113, N-[4-[[N-methyl-N-(tetrahydropyran-4-yl)amino]methyl]phenyl]-7-(4-propylphenoxy)-1,1-dioxo-2,3-dihydro-1-benzothiepine-4-carboxamide] | 147 to 149 |
| CCCOCCOc1ccc(Oc2ccc3c(c2)C=C(C(=O)Nc2ccc(CN(C)C4CCOCC4)cc2)CCS3(=O)=O)cc1OCC [Compound 114, 7-[3-ethoxy-4-(2-propoxyethoxy)phenoxy]-N-[4-[[N-methyl-N-(tetrahydropyran-4-yl)amino]methyl]phenyl]-1,1-dioxo-2,3-dihydro-1-benzothiepine-4-carboxamide] | 159 to 160 |
| CCCOCc1ccccc1Oc1ccc2c(c1)C=C(C(=O)Nc1ccc(CN(C)C3CCOCC3)cc1)CCS2(=O)=O [Compound 115, N-[4-[[N-methyl-N-(tetrahydropyran-4-yl)amino]methyl]phenyl]-7-(2-propoxymethylphenoxy)-1,1-dioxo-2,3-dihydro-1-benzothiepine-4-carboxamide] | 162 to 164 |
| CCCOc1ccccc1CCCOc1ccc2c(c1)C=C(C(=O)Nc1ccc(CN(C)C3CCOCC3)cc1)CCS2(=O)=O [Compound 119, N-[4-[[N-methyl-N-(tetrahydropyran-4-yl)amino]methyl]phenyl]-7-[3-(2-propoxyphenyl)propoxy]-1,1-dioxo-2,3-dihydro-1-benzothiepine-4-carboxamide] | 184 to 186 |
| CCOCCCc1ccc(Oc2ccc3c(c2)C=C(C(=O)Nc2ccc(CN(C)C4CCOCC4)cc2)CCS3(=O)=O)cc1 [Compound 125, 7-[4-(3-ethoxypropyl)phenoxy]-N-[4-[[N-methyl-N-(tetrahydro-2H-pyran-4-yl)amino]methyl]phenyl]-1,1-dioxo-2,3-dihydro-1-benzothiepine-4-carboxamide] | 156 to 157 |
| CCOCCOc1c(C)cc(Oc2ccc3c(c2)C=C(C(=O)Nc2ccc(CN(C)C4CCOCC4)cc2)CCS3(=O)=O)cc1C [Compound 126, 7-[4-(2-ethoxyethoxy)-3,5-dimethylphenoxy]-N-[4-[[N-methyl-N-(tetrahydro-2H-pyran-4-yl)amino]methyl]phenyl]-1,1-dioxo-2,3-dihydro-1-benzothiepine-4-carboxamide] | 111 to 113 |

Results, then the molecule that gave them:

| melting point [°C] | SMILES |
| --- | --- |
| 211 to 214 | CCOc1ccccc1COc1ccc2c(c1)C=C(C(=O)Nc1ccc(CN(C)C3CCOCC3)cc1)CCS2(=O)=O [Compound 101, 7-[(2-ethoxybenzyl)oxy]-N-[4-[[N-methyl-N-(tetrahydropyran-4-yl)amino]methyl]phenyl]-1,1-dioxo-2,3-dihydro-1-benzothiepine-4-carboxamide] |
| 223 to 225 | COc1ccccc1COc1ccc2c(c1)C=C(C(=O)Nc1ccc(CN(C)C3CCOCC3)cc1)CCS2(=O)=O [Compound 102, 7-[(2-methoxybenzyl)oxy]-N-[4-[[N-methyl-N-(tetrahydropyran-4-yl)amino]methyl]phenyl]-1,1-dioxo-2,3-dihydro-1-benzothiepine-4-carboxamide] |
| 153 to 154 | CCCOc1cccc(CCOc2ccc3c(c2)C=C(C(=O)Nc2ccc(CN(C)C4CCOCC4)cc2)CCS3(=O)=O)c1 [Compound 105, N-[4-[[N-methyl-N-(tetrahydropyran-4-yl)amino]methyl]phenyl]-7-[(3-propoxyphenethyl)oxy]-1,1-dioxo-2,3-dihydro-1-benzothiepine-4-carboxamide] |
| 185 to 187 | CCOCCOc1ccc(COc2ccc3c(c2)C=C(C(=O)Nc2ccc(CN(C)C4CCOCC4)cc2)CCS3(=O)=O)cc1 [Compound 107, N-[4-[[N-methyl-N-(tetrahydropyran-4-yl)amino]methyl]phenyl]-7-[[4-(2-ethoxyethoxy)benzyl]oxy]-1,1-dioxo-2,3-dihydro-1-benzothiepine-4-carboxamide] |
| 143 to 144 | CCCOc1cccc(Oc2ccc3c(c2)C=C(C(=O)Nc2ccc(CN(C)C4CCOCC4)cc2)CCS3(=O)=O)c1 [Compound 112, N-[4-[[N-methyl-N-(tetrahydropyran-4-yl)amino]methyl]phenyl]-7-(3-propoxyphenoxy)-1,1-dioxo-2,3-dihydro-1-benzothiepine-4-carboxamide] |
| 181 to 185 | COc1cccc(COc2ccc3c(c2)C=C(C(=O)Nc2ccc(CN(C)C4CCOCC4)cc2)CCS3(=O)=O)c1 [Compound 117, 7-(3-methoxybenzyloxy)-N-[4-[[N-methyl-N-(tetrahydropyran-4-yl)amino]methyl]phenyl]-1,1-dioxo-2,3-dihydro-1-benzothiepine-4-carboxamide] |
| 189 to 192 | CCOc1cccc(COc2ccc3c(c2)C=C(C(=O)Nc2ccc(CN(C)C4CCOCC4)cc2)CCS3(=O)=O)c1 [Compound 118, 7-(3-ethoxybenzyloxy)-N-[4-[[N-methyl-N-(tetrahydropyran-4-yl)amino]methyl]phenyl]-1,1-dioxo-2,3-dihydro-1-benzothiepine-4-carboxamide] |
| 186 to 188 | CCOc1ccc(COc2ccc3c(c2)C=C(C(=O)Nc2ccc(CN(C)C4CCOCC4)cc2)CCS3(=O)=O)cc1OCC [Compound 122, N-[4-[[N-methyl-N-(tetrahydropyran-4-yl)amino]methyl]phenyl]-7-(3,4-diethoxybenzyloxy)-1,1-dioxo-2,3-dihydro-1-benzothiepine-4-carboxamide] |
